The test system of test [1] is MDA-MB-468 human breast adenocarcinoma. The experiment in a line: MDA-MB-468 CCK-8 proliferation assay. To be noted: MDA-MB-468 cells, 72 hr. Format: cell-based. The protocol:
(§1) The following cancer cell lines were employed: A549 human lung carcinoma (ATCC, #CCL-185); BT-474 human breast carcinoma (ATCC, #HTB-20); MDA-MB-231 human breast adenocarcinoma (ATCC, #CRM−HTB-26); MDA-MB-468 human breast adenocarcinoma (ATCC, #HTB-132); MV-4-11 human acute myeloid leukemia (ATCC, #CRL-9591); and U-87 MG human glioblastoma (ATCC, #HTB-14). Cell lines were cultured essentially according to ATCC recommendations.
(§2) 3-fold serial dilutions of each test compound were prepared ranging from 20 μM to 1.02 nM.
(§3) % Inhibition=100−(D−B)/(S−B)*100%. • S: Absorbance of cells treated with DMSO • D: Absorbance of compound-treated cells • B: Absorbance of medium with DMSO without cells

The test system of test [2] is U-87 MG human glioblastoma. The experiment in a line: U87 MG CCK-8 proliferation assay. Format: cell-based. To be noted: U-87 MG cells, read-out: U87MG CCK-8. The procedure, abridged:
(§4)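 Cells grown per ATCC recommendations were treated with 3-fold serial compound dilutions from 20 μM to 1.02 nM. CCK-8 absorbance was converted to % inhibition against DMSO-treated cells, with cell-free medium containing DMSO as the blank.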
In general terms: Tetrazolium dyes change colour on reduction, which living cells bring about.

The test system of test [3] is MV-4-11 human acute myeloid leukemia. The test is described as follows: MV-4-11 CCK-8 proliferation assay. Format: cell-based. To be noted: MV-4-11 cells, 72 hr. The procedure, abridged: as §4
Test [4] relates to MDA-MB-231 human breast adenocarcinoma. The test is described as follows: MDA-MB-231 CCK-8 proliferation assay. In kind it is cell-based. Conditions: MDA-MB-231 cells, 72 hr. On the procedure:
as §1, §2, §3

Test [5] deals with T1, HSP90α protein (Homo sapiens, UniProt P07900).
T1 construct: purchased BPS Bioscience #50298
The experiment in a line: HSP90α-binding FP (BODIPY) assay. Conditions: FP competition with BODIPY-labeled RNK04010. The method in brief: (§5)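 Fluorescence polarization measured competition with N-terminal human HSP90α, using either FITC-geldanamycin or BODIPY-labelled triazolone RNK04010 as tracer (5 nM final each). Compounds were tested in 2.5-fold dilutions from 20 μM to 5.2 nM, with incubation at 25 °C for 120 min (FITC) or 300 min (BODIPY).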

Test [6] addresses T2, MAPK7 (Homo sapiens, UniProt Q13164). The experiment in a line: MAPK7 kinase assay (ADP-Glo). In kind it is biochemical. Set-up: purchased Carna Biosciences #04-146. Conditions: ATP 340 μM. On the procedure: The inhibition of MAPK7 kinase activity by test compounds was measured by the ADP-Glo Kinase Assay (Promega, #V6930), following the manufacturer's instructions, except as noted. 3-fold serial dilutions of each test compound were prepared ranging from 50 μM to 2.54 nM. Also, as a positive control, a 4-fold serial dilution of the MAPK7 inhibitor, XMD17-109 (MedChemExpress, #HY-15665) was prepared ranging from 10 μM to 0.04 nM. In brief, in 384-well plates, test compounds were added to the kinase reaction mix containing recombinant MAPK7 protein (Carna Biosciences, #04-146; 20 nM final concentration), myelin basic protein (SignalChem Biotech, #M42-54G; 0.1 mg/ml final concentration) and ATP (340 μM final concentration), then mixed by shaking and incubated with ADP-Glo Reagent and Kinase Detection Reagent. Luminescence was measured on a BioTek plate reader.
Lumpositive: The average ratio for 10 wells of positive controls (10 μM XMD17-109) across the plate.
Lumvehicle: The average ratio for 10 wells of negative controls (0.5% DMSO) across the plate.
(ADP-Glo first removes unused ATP, then detects ADP through luciferase.)

Test [7] addresses T1, HSP90α protein. The test is described as follows: HSP90α-binding FP (FITC) assay. To be noted: FP competition with FITC-geldanamycin. The method in brief:
as §5

For another test, the system named is ERBB2. The test is described as follows: ERBB2 (HER2) flow cytometry protein degradation assay in BT-474 cells. Format: cell-based, human. Conditions: DC50, BT-474 cells, 24 hr. The procedure, abridged:
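BT-474 cells trypsinised after compound treatment and stained with PE-conjugated anti-ERBB2 antibody, 30 min at 25° C in the dark, then fixed in 1% paraformaldehyde for flow cytometry. % inhibition = 100−(D−B)/(S−B)*100, using treated, untreated-stained and unstained cell fluorescence.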
A general note: Flow cytometry measures light scatter and fluorescence of single cells or particles in a stream.

Test [8] addresses T2, MAPK7. The test is described as follows: MAPK7 Western blot protein degradation assay in U-87 MG cells. Format: cell-based. Conditions: 48 hr. Also on record: U-87 MG human glioblastoma cells, which express MAPK7; endogenous in cells; host or cells: U-87 MG. The procedure, abridged:
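U-87 MG glioblastoma cells treated with compounds at various concentrations for 48 h at 37 °C. MAPK7 (ERK5) levels in protein-normalized lysates measured by Western blot with β-actin as loading reference, quantified by fluorescence imaging.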

Test [9] concerns A549 human lung carcinoma. The experiment in a line: A549 CCK-8 proliferation assay. Format: cell-based. Conditions: A549 cells, 72 hr. On the procedure: as §1, §2, §3

These results are taken from patent US20240124460A1, “METHODS AND COMPOSITIONS FOR TARGETED PROTEIN DEGRADATION” (Ranok Therapeutics (Hangzhou) Co. Ltd., priority 2020, published 2024).

The structures appear in SMILES notation. Read-outs that look alike come from different tables or passages of the source.

T2 sequence (Q13164 whole entry): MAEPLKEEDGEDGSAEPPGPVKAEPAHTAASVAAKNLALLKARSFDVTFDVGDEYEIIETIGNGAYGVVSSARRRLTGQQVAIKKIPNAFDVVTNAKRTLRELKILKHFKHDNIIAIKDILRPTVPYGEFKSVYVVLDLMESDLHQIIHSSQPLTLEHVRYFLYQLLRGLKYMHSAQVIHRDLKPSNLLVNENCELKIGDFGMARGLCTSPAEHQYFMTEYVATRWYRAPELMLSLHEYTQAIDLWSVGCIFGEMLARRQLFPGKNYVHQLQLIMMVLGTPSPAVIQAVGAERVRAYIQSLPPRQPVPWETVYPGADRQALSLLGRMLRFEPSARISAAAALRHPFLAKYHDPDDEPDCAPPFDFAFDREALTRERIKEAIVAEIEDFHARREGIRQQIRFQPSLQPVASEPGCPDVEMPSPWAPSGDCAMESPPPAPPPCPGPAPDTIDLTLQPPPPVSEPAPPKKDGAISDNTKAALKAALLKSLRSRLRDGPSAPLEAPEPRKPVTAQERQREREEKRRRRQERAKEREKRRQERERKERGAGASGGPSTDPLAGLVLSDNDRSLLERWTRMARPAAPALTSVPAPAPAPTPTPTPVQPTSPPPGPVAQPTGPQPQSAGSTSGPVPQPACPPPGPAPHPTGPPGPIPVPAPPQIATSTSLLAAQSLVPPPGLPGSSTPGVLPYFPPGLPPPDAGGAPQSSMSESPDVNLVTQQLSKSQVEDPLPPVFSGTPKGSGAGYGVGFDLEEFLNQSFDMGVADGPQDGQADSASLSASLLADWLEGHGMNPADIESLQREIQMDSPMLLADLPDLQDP

By IC50 is commonly meant the concentration that gives 50% inhibition. A high value points to lower potency. For the compound `CCOc1cc(N2CCC(C(=O)N3CCN(Cc4ccc(-n5c(O)nnc5-c5cc(CC)c(O)cc5O)cc4)CC3)CC2)ccc1Nc1ncc2c(n1)N(C)c1ccccc1C(=O)N2C` [Compound 049, 2-((2-ethoxy-4-(4-(4-(4-(3-(5-ethyl-2,4-dihydroxyphenyl)-5-hydroxy-4H-1,2,4-triazol-4-yl)benzyl)piperazine-1-carbonyl)piperidin-1-yl)phenyl)amino)-5,11-dimethyl-5,11-dihydro-6H-benzo[e]pyrimido[5,4-b][1,4]diazepin-6-one], the EC50 in [1] was below 100 nM; in test [2] (Homo sapiens, U-87 MG, 72 h) it was 100 to 1000 nM; in test [3] (Homo sapiens, MV4-11) it was below 100 nM; in [4], below 100 nM. The compound further gave an IC50 at HSP90α protein [5] of 100 to 1000 nM.
Turning to `CCOc1cc(N2CCC(C(=O)N3CCC(CN4CCN(Cc5ccc(-n6c(O)nnc6-c6cc(C(C)C)c(O)cc6OC)cc5)CC4)CC3)CC2)ccc1Nc1ncc2c(n1)N(S(C)(=O)=O)c1ccccc1C(=O)N2C` [Compound 128, 2-((2-ethoxy-4-(4-(4-((4-(4-(3-hydroxy-5-(4-hydroxy-5-isopropyl-2-methoxyphenyl)-4H-1,2,4-triazol-4-yl)benzyl)piperazin-1-yl)methyl)piperidine-1-carbonyl)piperidin-1-yl)phenyl)amino)-5-methyl-11-(methylsulfonyl)-5,11-dihydro-6H-benzo[e]pyrimido[5,4-b][1,4]diazepin-6-one], the values for the IC50 against MAPK7 [6] and on HSP90α protein [7] were below 100 nM and above 1000 nM, respectively. Moreover, the EC50 was above 1000 nM in test [2] (Homo sapiens, U-87 MG, 72 h) and above 1000 nM in [3] (Homo sapiens, MV4-11).
Consider `CCOc1cc(N2CCC(C(=O)NCCOCc3ccc(-n4c(O)nnc4-c4cc(C(C)C)c(O)cc4O)cc3)CC2)ccc1Nc1ncc2c(n1)N(C)c1ccccc1C(=O)N2C` [Compound 053, N-(2-((4-(3-(2,4-dihydroxy-5-isopropylphenyl)-5-hydroxy-4H-1,2,4-triazol-4-yl)benzyl)oxy)ethyl)-1-(4-((5,11-dimethyl-6-oxo-6,11-dihydro-5H-benzo[e]pyrimido[5,4-b][1,4]diazepin-2-yl)amino)-3-ethoxyphenyl)piperidine-4-carboxamide], for which the EC50 was below 100 nM in test [1], 100 to 1000 nM in test [2] (72 hr), below 100 nM in test [3] and 100 to 1000 nM in [4]. On HSP90α protein [5], the IC50 was 100 to 1000 nM.
With `CCOc1cc(N2CCC(C(=O)NCC3CCN(C(=O)C4CCN(Cc5ccc(-n6c(O)nnc6-c6cc(C(C)C)c(O)cc6O)cc5)CC4)C3)CC2)ccc1Nc1ncc2c(n1)N(C)c1ccccc1C(=O)N2C` (stereo not shown) [Compound 010, N-((1-(1-(4-(3-(2,4-dihydroxy-5-isopropylphenyl)-5-hydroxy-4H-1,2,4-triazol-4-yl)benzyl)piperidine-4-carbonyl)pyrrolidin-3-yl)methyl)-1-(4-((5,11-dimethyl-6-oxo-6,11-dihydro-5H-benzo[e]pyrimido[5,4-b][1,4]diazepin-2-yl)amino)-3-ethoxyphenyl)piperidine-4-carboxamide], the EC50 in test [1] was above 1000 nM; in test [2] (Homo sapiens, U-87 MG, 72 h) it was 100 to 1000 nM; in test [3] (Homo sapiens, MV4-11) it was below 100 nM; in test [4] it was above 1000 nM. Besides, the ERBB2 degradation entry in the test with ERBB2 was “C (DC50 > 1000 nM)”. Besides, at HSP90α protein [7], the IC50 was in the range of 100 to 1000 nM.
`CCOc1cc(N2CCC(C(=O)N3CCC(CN4CCN(Cc5ccc(-n6c(O)nnc6-c6cc(CC)c(O)cc6O)cc5)CC4)CC3)CC2)ccc1Nc1ncc2c(n1)N(C)c1ccccc1C(=O)N2C` [Compound 013, 2-((2-ethoxy-4-(4-(4-((4-(4-(3-(5-ethyl-2,4-dihydroxyphenyl)-5-hydroxy-4H-1,2,4-triazol-4-yl)benzyl)piperazin-1-yl)methyl)piperidine-1-carbonyl)piperidin-1-yl)phenyl)amino)-5,11-dimethyl-5H-benzo[e]pyrimido[5,4-b][1,4]diazepin-6(11H)-one]: the EC50 is 100 to 1000 nM in test [1]; 100 to 1000 nM in [2] (Homo sapiens, U-87 MG, 72 h); below 100 nM in test [3] (Homo sapiens, MV4-11); 100 to 1000 nM in test [4]. Further, in the test with ERBB2, the ERBB2 degradation result is reported as “B (DC50 = 100-1000 nM)”. The same compound had a concentration for half-maximal inhibition (IC50) at HSP90α protein [7] of 100 to 1000 nM. Moreover, on MAPK7 [8], the “MAPK7 degradation (30 nM)” value was “C (< 33% degradation)”. Further, the “MAPK7 degradation (100 nM)” value on MAPK7 [8] is on record as “C (< 33% degradation)”. Further, on MAPK7 [8], the “MAPK7 degradation (1000 nM)” value was “A (>66% degradation)”.
For the compound `CCOc1cc(N2CCC(C(=O)N3CCC(CN4CCN(Cc5ccc(-n6c(C(=O)NC(C)C(F)(F)F)nnc6-c6cc(CC)c(O)cc6O)cc5)CC4)CC3)CC2)ccc1Nc1ncc2c(n1)N(S(C)(=O)=O)c1ccccc1C(=O)N2C.Cl` (stereo not shown) [Compound 078, 4-(4-((4-((1-(1-(3-ethoxy-4-((5-methyl-11-(methylsulfonyl)-6-oxo-6,11-dihydro-5H-benzo[e]pyrimido[5,4-b][1,4]diazepin-2-yl)amino)phenyl)piperidine-4-carbonyl)piperidin-4-yl)methyl)piperazin-1-yl)methyl)phenyl)-5-(5-ethyl-2,4-dihydroxyphenyl)-N-(1,1,1-trifluoropropan-2-yl)-4H-1,2,4-triazole-3-carboxamide], the IC50 on MAPK7 [6] and at HSP90α protein [5] was 100 to 1000 nM in each case. For the same compound, the EC50 in test [9] was 100 to 1000 nM; in test [2] (Homo sapiens, U-87 MG, 72 h) it was 100 to 1000 nM; in test [3], below 100 nM. Further, the ERBB2 degradation result with ERBB2 is listed as “B (DC50 = 100-1000 nM)”.
Regarding `CCOc1cc(N2CCC(C(=O)N3CCN(Cc4ccc(-n5c(O)nnc5-c5cc(C(C)C)c(O)cc5O)cc4)CC3)CC2)ccc1Nc1ncc2c(n1)N(C)c1ccccc1C(=O)N2C` [Compound 024, 2-((4-(4-(4-(4-(3-(2,4-dihydroxy-5-isopropylphenyl)-5-hydroxy-4H-1,2,4-triazol-4-yl)benzyl)piperazine-1-carbonyl)piperidin-1-yl)-2-ethoxyphenyl)amino)-5,11-dimethyl-5,11-dihydro-6H-benzo[e]pyrimido[5,4-b][1,4]diazepin-6-one], the half-maximal inhibitory concentration (IC50) at MAPK7 [6] is above 1000 nM. In the test on ERBB2, the ERBB2 degradation result is recorded as “B (DC50 = 100-1000 nM)”. Further, in test [2] (Homo sapiens, U-87 MG, 72 h), the EC50 is below 100 nM. This compound also yielded an EC50 in test [3] (Homo sapiens, MV4-11) below 100 nM. At HSP90α protein [5], this compound displayed an IC50 of 100 to 1000 nM. Moreover, on MAPK7 [8], the “MAPK7 degradation (30 nM)” value was “C (< 33% degradation)”, the “MAPK7 degradation (100 nM)” value is given as “B (33-66% degradation)” and the “MAPK7 degradation (1000 nM)” value is “A (>66% degradation)”.
